# “Also recorded” adds a separate entry of the source. Like-named read-outs stand apart in the source and are kept apart here.
# Columns and labels:
# [1] = Parallel artificial membrane permeability assay (PAMPA); format: in vitro ADME; conditions: for Flux / Papp at 4 h, 400 μM: 400 μM in PBS, 4 h, room temperature; for Permeability Classification (passive transport): BCS classification; for Papp at 4 h, 400 μM: read-out: Flux
# Procedure: Samples were tested in triplicates in three separate experiments.
# human NNMT (mt-hNNMT) = target: T1, human NNMT (mt-hNNMT) (Homo sapiens, UniProt P40261, E101A/E103A/K100A); assay: NNMT activity assay (HPLC-UV detection of MNA), NNMT IC50 curves; conditions: for IC50: NI = no observable inhibition
# T1 sequence (P40261 1-261 K100A/E101A/E103A limits assumed): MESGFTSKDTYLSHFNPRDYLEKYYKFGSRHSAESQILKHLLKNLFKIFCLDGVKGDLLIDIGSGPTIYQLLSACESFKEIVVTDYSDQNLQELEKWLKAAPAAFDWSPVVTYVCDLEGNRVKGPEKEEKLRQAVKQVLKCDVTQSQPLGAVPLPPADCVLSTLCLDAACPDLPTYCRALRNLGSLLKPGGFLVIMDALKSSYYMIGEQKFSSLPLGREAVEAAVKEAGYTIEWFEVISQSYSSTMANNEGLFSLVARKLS
# [2] = test system: 3T3-L1 pre-adipocytes cells; assay: MTT cell viability assay; format: cell-based; conditions: 3T3-L1 pre-adipocytes, 24 h; for cytotoxicity: 600 μM (highest concentration tested)
# Procedure: Cells were treated for 24 h with 0.1-600 μM NNMT inhibitors in cell culture media. A 24 h time point was chosen based on a previous report of using this time period for transfecting or treating 3T3-L1 cells with NNMT anti-sense oligonucleotides or a small molecule NNMT product inhibitor (1-MNA), respectively, for phenotypic measures. MTT (3-(4,5-dimethylthiazol-2-yl)-2,5-diphenyltetrazolium bromide) (ATCC; Manassas, Va., USA) was added to each well and assayed according to the manufacturer's instructions. Absorbance corresponding to the amount of formazan dye produced by treated cells was normalized to that produced by control (untreated) cells to calculate % viable cells in the treated samples.
# [3] = Bi-directional permeability assay with Caco-2 cells; conditions: human; for efflux ratio at 2 h, 10 μM: Caco-2; for Papp A→B at 2 h, 10 μM / Papp B→A at 2 h, 10 μM: Caco-2, pH 7.4
# Caco-2 cells = assay: as above; conditions: Caco-2
# [4] = test system: NNMT activity in 3T3-L1 pre-adipocytes and differentiated adipocytes; assay: Quantitative measurement of NNMT reaction product 1-MNA in cultured cells (LC/MS/MS); format: cell-based; conditions: 10 μM, 24 h
# Procedure: Differentiation of 3T3-L1 pre-adipocytes. […] Briefly, standard culture media was supplemented with scheduled addition of adipogenic agents [3-isobutyl-1methyl xanthine (IBMX), Sigma Aldrich; MO, USA), dexamethasone (Sigma Aldrich; MO, USA), insulin (Gibco Life Technologies Inc.; Grand Island, N.Y., USA)] over 10 days to promote differentiation of 3T3-L1 fibroblasts into adipocytes; a combination of 1 mM IBMX, 1 μM dexamethasone, and 10 μg/ml of insulin in media were added to fully confluent 3T3-L1 fibroblasts for three days (days 0-3) to initiate differentiation. At day 3, the media was replaced with culture media supplemented with insulin (10 μg/ml). After day 6, cells were maintained in culture media until described experiments were begun (days 8-10).
# Cellular 1-MNA concentrations were determined using an ultra-sensitive high-resolution AB Sciex 6500 Q-trap mass spectrometer coupled to an Agilent 1260 ultra-high pressure liquid chromatography (LC/MS/MS) system. Using multiple reaction monitoring (MRM) positive ion mode, the 1-MNA NNMT reaction product was quantified from peak area ratios using AB Sciex Analyst and MultiQuant 2.1 software and the parent precursor and Q3 masses set to m/z 137.1 and 94.1, respectively. Fragment ions at m/z of 92.1 and 77.9 were additionally used for the detection and confirmation of 1-MNA, respectively. […]. To determine the effect of NNMT inhibitor on NNMT activity in the pre-adipocytes and differentiated adipocytes (8×10^4 cells/well seeded prior to beginning differentiation), cells were treated with 30 μM inhibitor for 24 h. Similarly, to compare the relative effects of multiple NNMT inhibitors on NNMT activity in cultured adipocytes, differentiated adipocytes in 6-well plates were treated with 10 μM test compound for 24 h. Following treatment, media was replaced with 80% (v/v) methanol (cooled to −80° C.) containing 500 nmol 6-chloronicotinamide (6-CN) as an internal standard (IS) to extract cellular metabolites. Adherent cells were scrapped, then centrifuged at 4° C. and 13000 g for 15 min, and the resulting supernatants processed using established protocols. […]. Data were subsequently normalized to the IS peak area and transformed as % control values for cross-sample comparisons. […] Choice of inhibitor concentrations and time period was chosen based on the results from the MTT studies.
# [5] = NNMT Inhibition IC50, mean ± SD of duplicate or triplicate measurements
molecule,measurement,setting,value
1-methylnicotinamide [reference compound],Flux,[1],0 cm/s
same,Permeability Classification (passive transport),[1],No permeability
same,Permeability Classification (passive transport),[1]; listed as 1-MNA,no passive permeability
"C[n+]1cccc2ccccc21 [1a, 1-methylquinolinium]",Flux,[1],0 cm/s
same,Permeability Classification (passive transport),[1],No permeability
same,Permeability Classification (passive transport),[1]; listed as 1-MQ,lacked passive diffusion properties
same,IC50,human NNMT (mt-hNNMT); [5],12.1 ± 3.1 µM
Cc1ccc2ccccc2[n+]1C [1b],IC50,human NNMT (mt-hNNMT); [5],21 ± 2.1 µM
"C[n+]1c(N)ccc2ccccc21.[I-] [1c, 2-amino-1-methylquinolin-1-ium Iodide]",inhibitory activity against NNMT (in words),human NNMT (mt-hNNMT),exhibited inhibitory activity
same,IC50,human NNMT (mt-hNNMT); [5],6.3 ± 1.1 µM
C[n+]1cc(N)cc2ccccc21 [1d],IC50,human NNMT (mt-hNNMT); [5],2.9 µM
C[n+]1cc(C#N)cc2ccccc21 [1e],IC50,human NNMT (mt-hNNMT); [5],23.8 ± 5.6 µM
"CNc1cc2ccccc2[n+](C)c1.[I-] [1f, 1-methyl-3-(methylamino)quinolin-1-ium Iodide]",inhibitory activity against NNMT (in words),human NNMT (mt-hNNMT),exhibited inhibitory activity
same,IC50,human NNMT (mt-hNNMT); [5],4 ± 1.5 µM
C[n+]1cc(Nc2ccccc2)cc2ccccc21 [1g],IC50,human NNMT (mt-hNNMT); [5],> 1000 µM
Cc1cc[n+](C)c2ccccc12 [1h],IC50,human NNMT (mt-hNNMT); [5],7.5 ± 2.2 µM
C[n+]1ccc(N)c2ccccc21 [1i],IC50,human NNMT (mt-hNNMT); [5],11.4 ± 2.1 µM
C[n+]1cccc2cc(F)ccc21 [1k],IC50,human NNMT (mt-hNNMT); [5],5.7 ± 1.8 µM
"C[n+]1cccc2cc(N)ccc21.[I-] [1m, 6-amino-1-methylquinolin-1-ium Iodide]",inhibitory activity against NNMT (in words),human NNMT (mt-hNNMT),exhibited inhibitory activity
same,IC50,human NNMT (mt-hNNMT); [5],34.4 ± 9.6 µM
COc1ccc2c(ccc[n+]2C)c1 [1n],IC50,human NNMT (mt-hNNMT); [5],120 ± 50.1 µM
C[n+]1cccc2ccc(N)cc21 [1o],"Papp at 4 h, 400 μM",[1],2.05 ×10⁻⁶ cm/s
same,Permeability Classification (passive transport),[1]; listed as 7-amino-1MQ,high passive and active transport; also recorded: High permeability
same,cell viability,[2]; 10 μM,did not impact cell viability
same,cytotoxicity,[2],~40%
same,cytotoxicity relative to untreated cells,[2]; 100-300 μM,modest cytotoxicity
same,"efflux ratio at 2 h, 10 μM",[3],1.52
same,"Papp A→B at 2 h, 10 μM",[3],26 ×10⁻⁶ cm/s
same,"Papp B→A at 2 h, 10 μM",[3],39.6 ×10⁻⁶ cm/s
same,Classification (active transport / efflux),Caco-2 cells; listed as 7-amino-1MQ,no detectable efflux; also recorded: High permeability
same,IC50,human NNMT (mt-hNNMT); [5],2.6 ± 0.5 µM
C[n+]1cccc2ccc(O)cc21 [1p],IC50,human NNMT (mt-hNNMT); [5],709 ± 179 µM
C[n+]1cccc2cccc(O)c21 [1r],IC50,human NNMT (mt-hNNMT); [5],95.2 ± 21 µM
CC[n+]1cccc2ccccc21 [1s],IC50,human NNMT (mt-hNNMT); [5],27.1 ± 5.4 µM
COCC[n+]1cccc2ccccc21 [1t],IC50,human NNMT (mt-hNNMT); [5],> 1000 µM
O=C(C[n+]1cccc2ccccc21)c1ccccc1 [1u],IC50,human NNMT (mt-hNNMT); [5],> 1000 µM
CC(C(=O)c1ccc(Br)cc1)[n+]1cccc2ccccc21 (stereo not shown) [1v],IC50,human NNMT (mt-hNNMT); [5],> 1000 µM
O=C1C2CC=C(Cl)CC2C(=O)N1CCC[n+]1cccc2ccccc21 (stereo not shown) [1w],IC50,human NNMT (mt-hNNMT); [5],> 1000 µM
CC[n+]1ccc(C)c2ccccc21 [2a],IC50,human NNMT (mt-hNNMT); [5],8.7 ± 2.6 µM
CC[n+]1cccc2cccc(C)c21 [2b],IC50,human NNMT (mt-hNNMT); [5],3.1 ± 1.4 µM
Cc1cc[n+](CCO)c2ccccc12 [2c],IC50,human NNMT (mt-hNNMT); [5],33.5 ± 9.9 µM
CC(=O)C[n+]1cccc2cccc(O)c21 [2d],IC50,human NNMT (mt-hNNMT); [5],40.6 ± 13 µM
OC(CBr)C[n+]1cc(Br)cc2ccccc21 (stereo not shown) [2e],IC50,human NNMT (mt-hNNMT); [5],> 1000 µM
CCC[n+]1cccc2cc(C)ccc21 [2f],IC50,human NNMT (mt-hNNMT); [5],> 1000 µM
CC(=O)C[n+]1cccc2cc(Cl)ccc21 [2g],IC50,human NNMT (mt-hNNMT); [5],> 1000 µM
CC(=O)C[n+]1cccc2cc(O)ccc21 [2h],IC50,human NNMT (mt-hNNMT); [5],> 1000 µM
Cc1ccc2c(ccc[n+]2CC(=O)c2ccccc2)c1 [2i],IC50,"human NNMT (mt-hNNMT); read-out: NNMT Inhibition IC50, mean ± SD of duplicate or triplicate measurements",> 1000 µM
"C[n+]1cc(N)cc2cc(F)ccc21 [2j, 3-amino-6-fluoro-1-methylquinolin-1-ium]","Papp at 4 h, 400 μM",[1],1.08 ×10⁻⁶ cm/s
same,Permeability Classification (passive transport),[1],Moderate permeability
same,1-MNA levels in differentiated adipocytes relative to control,[4],significantly decreased
same,inhibitory activity against NNMT (in words),human NNMT (mt-hNNMT),inhibitory activity
same,IC50,human NNMT (mt-hNNMT); [5],1.2 ± 0.2 µM
Cc1ccc(C(F)(F)F)c2ccc[n+](C)c12 [2k],inhibitory activity against NNMT (in words),human NNMT (mt-hNNMT),inhibitory activity
same,IC50,human NNMT (mt-hNNMT); [5],87 ± 26.1 µM
"C[n+]1ccc(Cl)c2cccc(C(F)(F)F)c21.O=S(=O)([O-])C(F)(F)F [2l, 4-chloro-1-methyl-8-(trifluoromethyl)quinolin-1-ium Trifluoromethanesulfonate]",inhibitory activity against NNMT (in words),human NNMT (mt-hNNMT),inhibitory activity
same,IC50,human NNMT (mt-hNNMT); [5],> 1000 µM
C[n+]1c(N)c(N)cc2ccccc21 [2m],"Papp at 4 h, 400 μM",[1],3.9 ×10⁻⁶ cm/s
same,Permeability Classification (passive transport),"[1]; listed as 2,3-diamine-1MQ",High permeability
same,Permeability Classification (passive transport),"[1]; listed as 2,3-diamino-1MQ",high passive permeability
same,cell viability,[2]; 300 μM,did not impact cell viability
same,cytotoxicity,[2],~40%
same,1-MNA levels in differentiated adipocytes relative to control,[4],significantly decreased
same,"efflux ratio at 2 h, 10 μM",[3],4.03
same,"Papp A→B at 2 h, 10 μM",[3],5.27 ×10⁻⁶ cm/s
same,"Papp B→A at 2 h, 10 μM",[3],21.2 ×10⁻⁶ cm/s
same,Classification (active transport / efflux),"Caco-2 cells; listed as 2,3-diamine-1MQ",Moderate permeability
same,Classification (active transport / efflux),"Caco-2 cells; listed as 2,3-diamino-1MQ",moderate bi-directional active transport with moderate efflux ratio
same,inhibitory activity against NNMT (in words),human NNMT (mt-hNNMT),inhibitory activity
same,IC50,human NNMT (mt-hNNMT); [5],2.8 ± 0.5 µM
Cc1ccc2c(ccc(C)[n+]2C)c1 [2n],IC50,human NNMT (mt-hNNMT); [5],> 1000 µM
c1ccc2ncccc2c1 [Quinoline],Flux,[1],3.39e-05 cm/s
same,Permeability Classification (passive transport),[1],High permeability
"CNC(=C[N+](=O)[O-])NCCSCc1ccc(CN(C)C)o1 [Ranitidine, reference compound]",Classification (active transport / efflux),Caco-2 cells,Low permeability

# Source: patent US11401243B2, “Quinoline derived small molecule inhibitors of nicotinamide N-methyltransferase (NNMT) and uses thereof” (priority 2017, dated 2022)
